One series concerns the target CRF2 R (Rattus norvegicus, UniProt P47866). The experiment in a line: In vitro autoradiography competition with [125I]Sauvagine, rat choroid plexus. It is filed as binding. Conditions: read-out: Rat choroid plexus Ki; [125I] Sauvagine 0.1 nM; n=3.
In a further series the target is T1, CRF1 receptors (Rattus norvegicus, UniProt P35353).
T1 sequence (P35353 24-415): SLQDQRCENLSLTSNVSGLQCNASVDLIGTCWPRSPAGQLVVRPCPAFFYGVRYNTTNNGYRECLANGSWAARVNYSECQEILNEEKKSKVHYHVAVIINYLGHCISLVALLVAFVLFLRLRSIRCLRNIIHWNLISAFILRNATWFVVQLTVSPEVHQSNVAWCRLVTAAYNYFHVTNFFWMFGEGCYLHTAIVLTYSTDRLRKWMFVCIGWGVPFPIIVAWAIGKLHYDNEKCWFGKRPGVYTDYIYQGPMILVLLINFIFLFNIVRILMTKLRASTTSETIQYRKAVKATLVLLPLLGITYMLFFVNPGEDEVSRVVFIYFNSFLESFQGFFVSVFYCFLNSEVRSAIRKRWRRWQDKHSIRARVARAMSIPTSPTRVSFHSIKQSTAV
Kind of series: In vitro autoradiography competition with [125I]Sauvagine, rat frontal cortex. It is filed as binding.

In series [1] the target is T2, CRF1 receptor (Macaca mulatta, UniProt Q76LL8).
T2 sequence (Q76LL8 24-415): T1 sequence (P35353 24-415) with R6H, N9S, T13A, V16I, V153M, A163G, V209I, H229Y, R356H
In kind it is binding, rhesus monkey.

Series [2] concerns the target T2, CRF1 receptor. Kind of series: In vitro autoradiography with radioligand. In kind it is binding, rhesus monkey. Conditions: saturation, ROIs in monkey prefrontal/frontal cortex; n=3.
The subject of a further series is P-gp. Conditions: ref Kiesewetter et al., 2003; cited from earlier work.
Where [3] appears, read: monkey frontal cortex, [125I]o-CRH.

Substitutions are numbered along the chain they refer to.

The text below walks through data of publication PMC3625961 (Synapse (New York, N.Y.), 2011).

Sequence of CRF2 R (P47866 1-431 isoform P47866-2): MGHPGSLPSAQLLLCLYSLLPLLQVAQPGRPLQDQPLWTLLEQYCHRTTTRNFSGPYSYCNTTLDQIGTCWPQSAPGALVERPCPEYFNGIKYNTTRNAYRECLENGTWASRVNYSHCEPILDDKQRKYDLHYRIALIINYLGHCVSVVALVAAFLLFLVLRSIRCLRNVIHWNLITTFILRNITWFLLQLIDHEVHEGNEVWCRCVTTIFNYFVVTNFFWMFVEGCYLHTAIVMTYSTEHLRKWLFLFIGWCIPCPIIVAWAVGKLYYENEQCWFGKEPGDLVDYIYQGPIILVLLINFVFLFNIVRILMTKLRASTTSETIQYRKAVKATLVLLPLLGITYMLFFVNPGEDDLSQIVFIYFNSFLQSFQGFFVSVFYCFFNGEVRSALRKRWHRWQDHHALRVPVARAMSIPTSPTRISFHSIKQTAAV

One may read the Ki as the dissociation constant of the complex between target and ligand, obtained from inhibition or displacement. Take `COCCN(CCOC)c1nc(C)nc2c(-c3c(OC)cc(Br)cc3OC)c(C)nn12` [4-Br-BMK-152, [8-(4-bromo-2,6-dimethoxyphenyl)-2,7-dimethylpyrazolo[1,5-α][1,3,5]triazin-4-yl]-N,N-bis-(2-methoxyethyl)amine]: the Ki on CRF2 R was more than 1000 nM; on CRF1 receptors (read-out: Rat Frontal Cortex Ki, [125I] Sauvagine 0.1 nM, mean ± SD, n=3) it was 0.15 ± 0.05 nM; on CRF1 receptor [1] (read-out: Rhesus Frontal Cortex Ki, [125I]-oCRH 0.125 nM, mean ± SD, n=3), 0.35 ± 0.05 nM. For the same compound, the “greater affinity compared to o-CRH” value on CRF1 receptors (rat frontal cortex, [125I]Sauvagine) was found to be 5 fold; on CRF1 receptor [1] (setting [3]) it was 4 fold. The “greater affinity compared to 3-Br-BMK” value on CRF1 receptor [1] (setting [3]) is 70 fold.

Usually Kd stands for the constant that tells how readily two partners part at equilibrium. As to `CC[C@H](C)[C@H](NC(=O)[C@H](CC(=O)O)NC(=O)[C@H](CC(C)C)NC(=O)[C@H](CC(C)C)NC(=O)[C@H](CCCCN)NC(=O)[C@H](CCCNC(=N)N)NC(=O)[C@H](CC(N)=O)NC(=O)[C@H](CO)NC(=O)[C@H](Cc1c[nH]cn1)NC(=O)[C@H](C)NC(=O)[C@H](CCC(N)=O)NC(=O)[C@H](CCC(N)=O)NC(=O)[C@H](C)NC(=O)[C@H](CC(C)C)NC(=O)[C@H](CCC(N)=O)NC(=O)[C@H](CC(=O)O)NC(=O)[C@H](C)NC(=O)[C@H](CCCCN)NC(=O)[C@@H](NC(=O)[C@H](CCSC)NC(=O)[C@H](CCC(=O)O)NC(=O)[C@H](CC(C)C)NC(=O)[C@@H](NC(=O)[C@H](CCC(=O)O)NC(=O)[C@H](CCCNC(=N)N)NC(=O)[C@H](CC(C)C)NC(=O)[C@H](CC(C)C)NC(=O)[C@H](Cc1c[nH]cn1)NC(=O)[C@H](Cc1ccccc1)NC(=O)[C@@H](NC(=O)[C@H](CC(C)C)NC(=O)[C@H](CC(=O)O)NC(=O)[C@H](CC(C)C)NC(=O)[C@H](CO)NC(=O)[C@@H](NC(=O)[C@@H]1CCCN1C(=O)[C@@H]1CCCN1C(=O)[C@H](CCC(=O)O)NC(=O)[C@H](CCC(N)=O)NC(=O)[C@H](CO)NC(=O)[C@@H](N)Cc1ccc(O)c(I)c1)[C@@H](C)CC)[C@@H](C)O)C(C)C)[C@@H](C)O)C(=O)N[C@@H](C)C(N)=O` [[^125I]o-CRH], the equilibrium dissociation constant (Kd) on CRF1 receptor [2] was 0.68 ± 0.22 nM.

On to `CC(=O)O[C@H]1C(=O)[C@@]2(C)[C@H]([C@H](OC(=O)c3ccccc3)[C@]3(O)C[C@H](OC(=O)[C@H](O)[C@@H](NC(=O)c4ccccc4)c4ccccc4)C(C)=C1C3(C)C)[C@]1(OC(C)=O)CO[C@@H]1C[C@@H]2O` [paclitaxel], for which, in the series on P-gp, the “increase in P-gp KO mice compared to WT mice” value was 640%.
